From patent US20240254135A1, “POLYPHENOL COMPOUNDS” (Epirium Bio Inc., priority 2022, published 2024) come the findings set out here.

The assay deals with T1, mitochondrial ATP synthase (Mus musculus, UniProt P56480+Q03265).
T1 construct: from tissue; host or cells: mouse heart, isolated mitochondria (fresh or frozen)
Briefly: ATP hydrolysis (proton release/ECAR, Seahorse XF96) in fresh heart mitochondria. It is filed as biochemical. The note with it: for changes in ATP hydrolysis: fresh heart mitochondria (FIG. 1, FIG. 2). From the text: To assess whether the fraction of synthetic and reverse hydrolytic activities of mitochondrial ATP synthase can be measured in the same preparation, a protocol was developed to monitor changes in oxygen consumption and proton release in response to changes in mitochondrial ATP synthase activity. The proton released and the concomitant changes in the pH can be monitored using the ECAR (extracellular acidification) channel in the Agilent Seahorse XF analyzer using isolated mitochondria, to ensure that the changes in pH cannot be attributed to glycolysis or other contributors to ECAR.
Mice were anesthetized with isoflurane followed by a cervical dislocation, and the heart was immediately removed and placed in ice cold relaxation buffer (5 mM sodium pyrophosphate, 100 mM KCl, 5 mM EGTA, 5 mM HEPES; pH 7.4). The heart was squeezed with tweezers to remove blood, minced with scissors, and then placed in a glass-glass Dounce homogenizer with 3 mL of HES homogenization buffer (250 mM sucrose, 5 mM HEPES, 1 mM EDTA; pH to 7.2, adjusted with KOH). The heart tissue was homogenized first with the loose pestle and followed by the tight pestle. The homogenized tissue was placed in a pre-chilled 15 ml conical tube and centrifuged at 900×g (4° C.) for 10 minutes (min). The supernatant was removed, placed in a new tube and centrifuged again at 900×g for 10 min. The supernatant was then transferred to 2 mL microcentrifuge tubes and centrifuged at 10,000×g (4° C.) for 10 min. The mitochondrial pellets were re-suspended in ice cold HES buffer and mitochondrial protein was measured with a BCA assay (Pierce). The concentrated mitochondrial pellet was stored on ice.
Heart mitochondria (0.75-1.5 μg) were loaded into a Seahorse XF96 microplate in 20 μL of MAS (70 mM Sucrose, 220 mM Mannitol, 5 mM KH2PO4, 5 mM MgCl2, 1 mM EGTA, 2 mM HEPES; pH 7.2) plus 1% free fatty acid BSA containing substrates. The loaded plate was centrifuged at 2,000×g for 5 min at 4° C. (no brake) and an additional 130 μL of MAS was added to each well. When assessing compounds effect on respirometry, the compounds were added at this point at the indicated concentration in MAS buffer. To avoid disrupting mitochondrial adherence to the bottom of the plate, MAS was added using a multichannel pipette pointed at a 45° angle to the top of the well-chamber, as instructed by the manufacturer. Substrate concentrations in the well when assay was starting in state 4 were as follow: (i) 5 mM pyruvate+5 mM malate or ii) 5 mM succinate+2 μM rotenone. Substrate concentrations in the well when assay was starting in state 3 were as follow: (i) 5 mM pyruvate+5 mM malate+4 mM ADP or ii) 5 mM succinate+2 μM rotenone+4 mM ADP. Injections were performed as indicated in the figure descriptions at the following final concentration in the well: oligomycin (3.5 μM), FCCP (4 μM), Antimycin A (2 μM). Compounds were added at the indicated concentration.
ATP hydrolysis capacity or state 4 acidification was measured using Seahorse XF96 as described in Divakaruni et al. (2018) Anal Biochem 552:60-65 and Acin-Perez et al. (2021) Life 11(9):949, in MAS (70 mM Sucrose, 220 mM Mannitol, 5 mM KH2PO4, 5 mM MgCl2, 1 mM EGTA, 2 mM HEPES; pH 7.2). Plates were loaded with 0.75-1.5 μg of mouse heart mitochondria, or 25 μg of cell lysate. Cell lysates were prepared by subjecting the samples to 4 cycles of free thaw (liquid nitrogen—37° C. water bath) before measuring protein concentration. When assessing compounds effect on respirometry, the compounds were added in MAS after sample centrifugation. Initial respiration of the samples was sustained by the addition of 5 mM succinate+2 μM rotenone in the MAS after centrifugation. Injections were performed at the following final concentration in the well: Antimycin A (2 μM), oligomycin (5 μM), FCCP (1 μM), ATP (20 mM). To assess maximal ATP concentration, ATP was injected consecutively. […]

Turning to `COc1cc(C2Oc3ccccc3CC2O)ccc1F` (single isomer, unassigned) [Compound 75b, 2-(4-fluoro-3-methoxyphenyl)chroman-3-ol], the “changes in ATP hydrolysis” value was “very mild changes”. In the case of `Oc1ccc2c(c1)OC(c1ccc(O)c(C(F)(F)F)c1)C(O)C2` (single isomer, unassigned) [Compound 77b, 2-(4-hydroxy-3-(trifluoromethyl)phenyl)chromane-3,7-diol], the “changes in ATP hydrolysis” value is “very mild changes”. The change in hydrolysis result (fresh mitochondria, Complex I) is “no clear change”. Besides, the decrease in hydrolysis (fresh mitochondria, Complex II) is given as 20%. In the case of `Oc1cc(O)c2c(c1)O[C@H](c1ccc(O)c(O)c1)[C@H](O)C2` [Epicatechin, (+)Epicatechin, reference compound], the decrease in hydrolysis (mitochondria preparation and substrate not given) is on record as 10-25%.
